From ChEMBL document CHEMBL4257530, “Synthesis and evaluation of 6-heteroarylamino-2,4,5-trimethylpyridin-3-ols as inhibitors of TNF-α-induced cell adhesion and inflammatory bowel disease” (Medchemcomm, 2018)
Active and inactive are the calls of the source. No cut-off for these calls is given here.

What was measured:
HT-29 [1] = assay: Inhibition of TNFalpha-mediated adhesion of BCECF fluorescence-labeled human U937 cells to human HT-29 cells at 1 uM pretreated for 1 hr followed by BCECF fluorescence-labeled human U937 cell/TNFalpha addition and measured after 3 hrs by fluorescence assay relative to control; format: functional
HT-29 [2] = assay: Potency index, ratio of compound effect to 5-ASA effect for inhibition of TNFalpha-mediated adhesion of BCECF fluorescence-labeled human U937 cells to human HT-29 cells at 1 uM; format: functional
Rattus norvegicus [3] = assay: Antiinflammatory activity in TNBS-induced Sprague-Dawley rat colitis model assessed as decrease in MCP1 expression at 1 mg/kg, po administered once daily via gavage for 5 days starting 1 day post TNBS induction measured on day 7 by ELISA; format: functional, organism-based
Rattus norvegicus [4] = assay: Antiinflammatory activity in TNBS-induced Sprague-Dawley rat colitis model assessed as decrease in TNFalpha expression at 1 mg/kg, po administered once daily via gavage for 5 days starting 1 day post TNBS induction measured on day 7 by Western blot analysis; format: functional, organism-based
Rattus norvegicus [5] = assay: Antiinflammatory activity in TNBS-induced Sprague-Dawley rat colitis model assessed as recovery in colon weight at 1 mg/kg, po administered once daily via gavage for 5 days starting 1 day post TNBS induction measured on day 7 relative to control; format: functional
Rattus norvegicus [6] = assay: Antiinflammatory activity in TNBS-induced Sprague-Dawley rat colitis model assessed as decrease in IL-6 expression at 1 mg/kg, po administered once daily via gavage for 5 days starting 1 day post TNBS induction measured on day 7 by Western blot analysis; format: functional, organism-based
Rattus norvegicus [7] = assay: Antiinflammatory activity in TNBS-induced Sprague-Dawley rat colitis model assessed as decrease in ICAM1 expression at 1 mg/kg, po administered once daily via gavage for 5 days starting 1 day post TNBS induction measured on day 7 by Western blot analysis; format: functional, organism-based
HT-29 [8] = assay: Potency index, ratio of 5-ASA IC50 to test compound IC50 for TNFalpha-mediated adhesion of BCECF fluorescence-labeled human U937 cells to human HT-29 cells; format: functional
Rattus norvegicus [9] = assay: Antiinflammatory activity in TNBS-induced Sprague-Dawley rat colitis model assessed as increase in IL-10 expression at 1 mg/kg, po administered once daily via gavage for 5 days starting 1 day post TNBS induction measured on day 7 by Western blot analysis; format: functional, organism-based
Rattus norvegicus [10] = assay: Antiinflammatory activity in TNBS-induced Sprague-Dawley rat colitis model assessed as decrease in IL1beta expression at 1 mg/kg, po administered once daily via gavage for 5 days starting 1 day post TNBS induction measured on day 7 by Western blot analysis; format: functional, organism-based
Rattus norvegicus [11] = assay: Antiinflammatory activity in TNBS-induced Sprague-Dawley rat colitis model assessed as myeloperoxidase level at 1 mg/kg, po administered once daily via gavage for 5 days starting 1 day post TNBS induction measured on day 7 by ELISA (reference value: 456.67 +/- 41.78 ng/ml); format: functional
Rattus norvegicus [12] = assay: Antiinflammatory activity in TNBS-induced Sprague-Dawley rat colitis model assessed as reduction in body weight loss at 1 mg/kg, po administered once daily via gavage for 5 days starting 1 day post TNBS induction measured on day 7; format: functional, organism-based
Rattus norvegicus [13] = assay: Antiinflammatory activity in TNBS-induced Sprague-Dawley rat colitis model assessed as decrease in ICAM1 expression at 300 mg/kg, po administered once daily via gavage for 5 days starting 1 day post TNBS induction measured on day 7 by Western blot analysis; format: functional, organism-based
Rattus norvegicus [14] = assay: Antiinflammatory activity in TNBS-induced Sprague-Dawley rat colitis model assessed as decrease in TNFalpha expression at 300 mg/kg, po administered once daily via gavage for 5 days starting 1 day post TNBS induction measured on day 7 by Western blot analysis; format: functional, organism-based
Rattus norvegicus [15] = assay: Antiinflammatory activity in TNBS-induced Sprague-Dawley rat colitis model assessed as decrease in IL-6 expression at 300 mg/kg, po administered once daily via gavage for 5 days starting 1 day post TNBS induction measured on day 7 by Western blot analysis; format: functional, organism-based
Rattus norvegicus [16] = assay: Antiinflammatory activity in TNBS-induced Sprague-Dawley rat colitis model assessed as recovery in colon weight at 300 mg/kg, po administered once daily via gavage for 5 days starting 1 day post TNBS induction measured on day 7; format: functional, organism-based
Rattus norvegicus [17] = assay: Antiinflammatory activity in TNBS-induced Sprague-Dawley rat colitis model assessed as decrease in MCP1 expression at 300 mg/kg, po administered once daily via gavage for 5 days starting 1 day post TNBS induction measured on day 7 by ELISA; format: functional, organism-based
Rattus norvegicus [18] = assay: Antiinflammatory activity in TNBS-induced Sprague-Dawley rat colitis model assessed as myeloperoxidase level at 300 mg/kg, po administered once daily via gavage for 5 days starting 1 day post TNBS induction measured on day 7 by ELISA (reference value: 456.67 +/- 41.78 ng/ml); format: functional
Rattus norvegicus [19] = assay: Antiinflammatory activity in TNBS-induced Sprague-Dawley rat colitis model assessed as decrease in IL1beta expression at 300 mg/kg, po administered once daily via gavage for 5 days starting 1 day post TNBS induction measured on day 7 by Western blot analysis; format: functional, organism-based
Rattus norvegicus [20] = assay: Antiinflammatory activity in TNBS-induced Sprague-Dawley rat colitis model assessed as increase in IL-10 expression at 300 mg/kg, po administered once daily via gavage for 5 days starting 1 day post TNBS induction measured on day 7 by Western blot analysis; format: functional, organism-based
HT-29 [21] = assay: Inhibition of TNFalpha-mediated adhesion of BCECF fluorescence-labeled human U937 cells to human HT-29 cells at 20 mM pretreated for 1 hr followed by BCECF fluorescence-labeled human U937 cell/TNFalpha addition and measured after 3 hrs by fluorescence assay relative to control; format: functional

Row | SMILES | inhibition at 1 µM (HT-29 [1]) [%] | Ratio (HT-29 [2]) | further results
1 | Cc1nc(Nc2cccc3[nH]ccc23)c(C)c(C)c1O | 31.9 | 3 - 5 | –
2 | Cc1nc(Nc2ccc(Cl)cn2)c(C)c(C)c1O | 59 | 3 - 5 | –
3 | Cc1nc(Nc2nccs2)c(C)c(C)c1O | 23.7 | 3 - 5 | –
4 | Cc1nc(Nc2nnc(-c3ccc(Br)cc3)s2)c(C)c(C)c1O | 13.7 | 3 - 5 | –
5 | COC(=O)c1sccc1Nc1nc(C)c(O)c(C)c1C | 23.7 | 3 - 5 | –
6 | Cc1nc(Nc2ccc(Cl)nc2)c(C)c(C)c1O | 75.4 | 3 - 5 | Activity (Rattus norvegicus [3]): Active; Activity (Rattus norvegicus [4]): Active; Activity (Rattus norvegicus [5]): 72%; Activity (Rattus norvegicus [6]): Active; Activity (Rattus norvegicus [7]): Active; Ratio IC50 (HT-29 [8]): <=7 ×10⁴ No_unit; Activity (Rattus norvegicus [9]): Active; Activity (Rattus norvegicus [10]): Active; Activity (Rattus norvegicus [11]): 127.02 ng/mL; Activity (Rattus norvegicus [12]): Active
7 | Cc1nnc(Nc2nc(C)c(O)c(C)c2C)o1 | 26.2 | 3 - 5 | –
8 | Cc1ccc(-c2nnc(Nc3nc(C)c(O)c(C)c3C)s2)cc1 | 16.6 | 3 - 5 | –
9 | Cc1nc(Nc2cncc3ccccc23)c(C)c(C)c1O | 55.4 | 3 - 5 | –
10 | Cc1nc(Nc2ccnc3ccccc23)c(C)c(C)c1O | 60.2 | 3 - 5 | –
11 | Cc1nc(Nc2cnc3ccccc3c2)c(C)c(C)c1O | 63.4 | 3 - 5 | Ratio IC50 (HT-29 [8]): <=7 ×10⁴ No_unit
12 | Cc1nc(Nc2ccc(C(F)(F)F)cn2)c(C)c(C)c1O | 34.8 | 3 - 5 | –
13 | Cc1nc(Nc2nnc(-c3ccc(C(F)(F)F)cc3)s2)c(C)c(C)c1O | 52.3 | 3 - 5 | –
14 | Cc1nc(Nc2ccccn2)c(C)c(C)c1O | 8.5 | 3 - 5 | –
15 | Cc1nc(Nc2ccc3ncccc3c2)c(C)c(C)c1O | 56.6 | 3 - 5 | –
16 | CCOC(=O)c1coc(Nc2nc(C)c(O)c(C)c2C)n1 | 38.5 | 3 - 5 | –
17 | Cc1nc(Nc2nnc(-c3ccc(C(F)(F)F)cc3)o2)c(C)c(C)c1O | 55.7 | 3 - 5 | –
18 | O=C(O)c1cc(/N=N/c2ccc(S(=O)(=O)Nc3ccccn3)cc2)ccc1O [SULFASALAZINE] | – | – | Activity (Rattus norvegicus [13]): Active; Activity (Rattus norvegicus [14]): Active; Activity (Rattus norvegicus [15]): Active; Activity (Rattus norvegicus [16]): Active; Activity (Rattus norvegicus [17]): Active; Activity (Rattus norvegicus [18]): 209.65 ng/mL; Activity (Rattus norvegicus [19]): Active; Activity (Rattus norvegicus [20]): Active
19 | COc1ccc(-c2nnc(Nc3nc(C)c(O)c(C)c3C)s2)cc1 | 13.2 | 3 - 5 | –
20 | Cc1nc(Nc2cccc3cnccc23)c(C)c(C)c1O | 52.8 | 3 - 5 | –
21 | Cc1nc(Nc2ccc(C(F)(F)F)nc2)c(C)c(C)c1O | 50.6 | 3 - 5 | –
22 | Cc1nc(Nc2cccc3cccnc23)c(C)c(C)c1O | 10.4 | 3 - 5 | –
23 | Cc1nc(Nc2nnc(-c3ccccc3)s2)c(C)c(C)c1O | 78.7 | 3 - 5 | Activity (Rattus norvegicus [3]): Active; Activity (Rattus norvegicus [4]): Active; Activity (Rattus norvegicus [5]): 79%; Activity (Rattus norvegicus [6]): Active; Activity (Rattus norvegicus [7]): Active; Activity (Rattus norvegicus [9]): Active; Activity (Rattus norvegicus [10]): Active; Activity (Rattus norvegicus [11]): 107.37 ng/mL; Activity (Rattus norvegicus [12]): Active
24 | Cc1nc(Nc2cc(C(F)(F)F)ccn2)c(C)c(C)c1O | 22.8 | 3 - 5 | –
25 | Nc1ccc(O)c(C(=O)O)c1 [MESALAMINE] | 3.5 | – | inhibition at 20000 µM (HT-29 [21]): 50.5%
26 | Cc1nc(Nc2nc3ccccc3[nH]2)c(C)c(C)c1O | 59.9 | 3 - 5 | –
27 | Cc1nc(Nc2nnc(-c3ccccc3)o2)c(C)c(C)c1O | 1.4 | – | –
28 | Cc1nc(Nc2nnc(C(F)(F)F)o2)c(C)c(C)c1O | 35.8 | 3 - 5 | –
